A short description of series [1]: Metabolite identification (MetID) in hepatocytes by LC-MS/MS. The class given is in vitro ADME, human. The conditions noted are these: 80 min incubation, HR LC-MS/MS, metabolite M1, parent ion m/z 551 (375 + 176). The text has this:
However, on the contrary, these metabolites can also be formed with higher or equivalent toxicity when compared to the parent ligand. Therefore, to gain such an understanding of metabolite toxicity, 223-2 TbB ligand was shortlisted for metabolite identification (MetID) studies as it was the least prominent CYP inhibitor among the three TbB ligands studied for CYP inhibition, as discussed in earlier sections. The metabolites’ detection and identification were accomplished by utilizing the high-resolution LC-MS/MS (HR LC-MS/MS) technique and the obtained fragmentation pattern was subsequently analyzed to propose putative structures as discussed in the following paragraph. MetID studies was initiated first for the parent 223-2 ligand by HR LC-MS/MS as its fragmentation understanding could act as a guide to potentially identify the metabolites formed after incubation with hepatocytes. Since the 223-2 TbB ligand contain N and O atoms, it could be easily protonated and it was sensitive in positive ionization mode. Consequently, it was studied using the positive fragmentation pattern by ESI-MS ^n .
To understand the fragmentation pattern of the parent compound, EPI spectrum was analyzed. […] Next, TbB ligand 223-2 was incubated (80 min) with hepatocytes and a new metabolite (M1) could be detected when compared with the control (0 min). […]

The test system of a further series is estrogenicity. The conditions noted are these: cited from earlier work.

Turning to `COc1cc(-c2nnn(-c3cc(OC)c(O)c(OC)c3)n2)cc(OC)c1O` [223-2], in series [1], the “metabolite detected after incubation with hepatocytes” value is on record as “formation of glucuronide”. Further, the “estrogenicity by in vitro studies” value in the series on estrogenicity is reported as “potentially non-estrogenic”.

In the case of `Cc1cc(-c2nnn(-c3cc(C)c(O)c(C)c3)n2)cc(C)c1O` [223-3], the “estrogenicity by in vitro studies” value with estrogenicity was “potentially non-estrogenic”.

The values above are taken from paper PMC9921896 (Molecules, 2023).
